Data: ChEMBL document CHEMBL1641386, “Lagunamides A and B: cytotoxic and antimalarial cyclodepsipeptides from the marine cyanobacterium Lyngbya majuscula” (J Nat Prod, 2010)

Experiments:
Plasmodium falciparum = assay: Antimalarial activity against drug-sensitive Plasmodium falciparum NF54 infected in human erythrocytes after 48 hrs by Liquid scintillation counter; type: functional, organism-based; conditions: NF54, 48 h
P388 = assay: Cytotoxicity against mouse P388 cells after 72 hrs by MTT assay; type: functional, cell-based; conditions: P388, 72 h
Pseudomonas aeruginosa = assay: Anti-Swarming activity against Pseudomonas aeruginosa PA01 at 100 ppm after 72 hrs; type: functional

Question: How did the IC50 (Plasmodium falciparum) turn out when `CC[C@@H](C)[C@@H]1NC(=O)CN(C)C(=O)[C@@H](Cc2ccccc2)N(C)C(=O)[C@H](C)NC(=O)[C@@H]([C@@H](C)CC)OC(=O)/C(C)=C/C[C@H](O)[C@H](C)[C@H]([C@@H](C)CC)OC(=O)[C@H](C)N(C)C1=O` [LAGUNAMIDE A] was run?
Answer: 190 nM

Question: What about the IC50 (P388) of the same compound?
Answer: 6.4 nM

Question: What about the Activity (Pseudomonas aeruginosa) of the same compound?
Answer: 62%

Question: `C/C=C(\C)[C@@H]1OC(=O)[C@H](C)N(C)C(=O)[C@H]([C@H](C)CC)NC(=O)CN(C)C(=O)[C@@H](Cc2ccccc2)N(C)C(=O)[C@H](C)NC(=O)[C@@H]([C@@H](C)CC)OC(=O)/C(C)=C/C[C@H](O)[C@@H]1C` [LAGUNAMIDE B] was tested. Which IC50 (Plasmodium falciparum) did it give?
Answer: 910 nM

Question: And the IC50 (P388)?
Answer: 20.5 nM

Question: What about the Activity (Pseudomonas aeruginosa) of the same compound?
Answer: 56%
